Measured values as given in the NIST ThermoML archive (doi:10.1021/acs.jced.5b00940).
± gives the expanded uncertainty stated by the source.

Experiment: mn = molality of the nth substance listed, in mol/kg
Conditions: 100 kPa, Liquid; for viscosity: Capillary tube (Ostwald / Ubbelohde) method; for mass density: Vibrating tube method

CC[N+](CC)(CC)CC.[Br-] [tetraethylammonium bromide] + O
Conditions | mass density, 288.15 K [kg/m3] | mass density, 298.15 K [kg/m3] | mass density, 308.15 K [kg/m3] | mass density, 318.15 K [kg/m3] | viscosity, 288.15 K [mPa·s] | viscosity, 298.15 K [mPa·s] | viscosity, 308.15 K [mPa·s] | viscosity, 318.15 K [mPa·s]
m1 = 0.05 | 1001.83 ± 2 | 998.859 ± 2 | 993.878 ± 2 | 991.993 ± 2 | 1.16 ± 0.047 | 0.904 ± 0.037 | 0.731 ± 0.03 | 0.612 ± 0.025
m1 = 0.5 | 1017.91 ± 2 | 1015.99 ± 2 | 1010.17 ± 2 | 1007.21 ± 2 | 1.341 ± 0.054 | 1.043 ± 0.042 | 0.836 ± 0.034 | 0.7 ± 0.028
m1 = 1 | 1035.82 ± 2 | 1032.57 ± 2 | 1027.25 ± 2 | 1023.5 ± 2 | 1.55 ± 0.063 | 1.209 ± 0.049 | 0.959 ± 0.039 | 0.792 ± 0.032
m1 = 2 | 1060.98 ± 2.1 | 1057.94 ± 2.1 | 1051.91 ± 2.1 | 1046.83 ± 2.1 | 1.942 ± 0.08 | 1.513 ± 0.062 | 1.189 ± 0.049 | 0.952 ± 0.039
